We go through twelve compounds from PubChem BioAssay (NCI).

Each structure is given as a SMILES string.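 Five compound concentrations were applied to cells in 96-well plates for 48 hours; endpoints were derived by simple linear interpolation of the resulting dose-response curve. At the GI50, growth is halved. At the TGI there is no net growth.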 Bounds are passed on as bounds.

Test systems include OVCAR-3 ovarian; COLO 205 colon; SF-295 CNS; A549 NSCLC; OVCAR-4 ovarian; SNB-75 CNS; IGROV1 ovarian; A498 renal.
Common to all, as to assay: growth of human tumour cells (NCI), 48 h

`Cn1cc(-c2csc(-c3ccccc3)n2)c2cccnc21`: the GI50 with OVCAR-3 ovarian was 16.3 µM; in the test on COLO 205 colon, 14 µM; with SF-295 CNS, 15 µM; in the test on A549 NSCLC, 16.9 µM; in the test with OVCAR-4 ovarian, 23.3 µM; in the test on SNB-75 CNS, 23.5 µM. The GI50 in the test with IGROV1 ovarian was 16.5 µM. Moreover, the TGI in the test with OVCAR-3 ovarian came to 32 µM; with COLO 205 colon, 26.9 µM; in the test on SF-295 CNS, 33.7 µM; with A549 NSCLC, 38 µM; in the test with OVCAR-4 ovarian it was 71.4 µM; in the test on SNB-75 CNS, 97.6 µM. Further, the TGI in the test on IGROV1 ovarian was found to be 37.4 µM.
With `O=C(Cc1cc(O)ccc1O)NO`, the GI50 in the test with OVCAR-3 ovarian was 16.9 µM; in the test with COLO 205 colon, 18.6 µM; with SF-295 CNS, 21.7 µM; in the test on A549 NSCLC, 89.4 µM; with A498 renal, greater than 100 µM; in the test with OVCAR-4 ovarian, greater than 100 µM. Besides, in the test on IGROV1 ovarian, the GI50 is greater than 100 µM. Moreover, the TGI is 33.3 µM with OVCAR-3 ovarian; 36.3 µM with COLO 205 colon; 47.9 µM with SF-295 CNS; greater than 100 µM in the test on A549 NSCLC; greater than 100 µM in the test with A498 renal; greater than 100 µM in the test with OVCAR-4 ovarian. The TGI in the test on IGROV1 ovarian was greater than 100 µM.
As for `O=S(=O)(NCCNc1nccc(-c2c(-c3ccc(F)cc3)nc3sccn23)n1)c1ccc(O)cc1`, the GI50 is 2 µM in the test with COLO 205 colon; 10.4 µM in the test with SF-295 CNS; 3.28 µM with A549 NSCLC; 8.8 µM with A498 renal; 3.52 µM in the test on OVCAR-4 ovarian; 1.68 µM in the test on SNB-75 CNS. Moreover, the GI50 in the test on IGROV1 ovarian is 1.7 µM. In addition, the TGI in the test with COLO 205 colon was 14.8 µM; in the test on SF-295 CNS, 34.6 µM; in the test with A549 NSCLC, 43.1 µM; with A498 renal, 23.2 µM; in the test with OVCAR-4 ovarian it was 21.6 µM; in the test on SNB-75 CNS, 13.1 µM. Besides, the TGI in the test on IGROV1 ovarian was found to be 13.7 µM.
With `Cc1ccc2ncnc(N(C)C3CCCCC3)c2c1`, the GI50 was 23.3 µM in the test on OVCAR-3 ovarian; 35.1 µM in the test on COLO 205 colon; 18.9 µM in the test on SF-295 CNS; 16.1 µM with A549 NSCLC; 77.1 µM in the test with A498 renal; 76.5 µM with OVCAR-4 ovarian. Also, the GI50 in the test with IGROV1 ovarian was 34.1 µM. The TGI in the test on OVCAR-3 ovarian was 54.5 µM; in the test with COLO 205 colon, greater than 100 µM; in the test with SF-295 CNS, 46.9 µM; in the test with A549 NSCLC it was 44.2 µM; with A498 renal, greater than 100 µM; in the test on OVCAR-4 ovarian, greater than 100 µM. This compound returned a TGI in the test on IGROV1 ovarian greater than 100 µM.
Regarding `O=C1NC(c2ccc3ccccc3c2)Nc2ccccc21` (stereo not given), the TGI in the test on COLO 205 colon, in the test with SF-295 CNS, in the test on A498 renal, with OVCAR-4 ovarian, with SNB-75 CNS and with IGROV1 ovarian was greater than 100 µM each time.
For `N#CC1=C(N)N=C(N2CCOCC2)C(C#N)C12Nc1ccccc1S2` (stereo not given), the GI50 was 20.1 µM with OVCAR-3 ovarian; 12.7 µM in the test with COLO 205 colon; 26.3 µM in the test on SF-295 CNS; 33.3 µM with A549 NSCLC; 67.3 µM with IGROV1 ovarian. The TGI with OVCAR-3 ovarian was 58.1 µM; in the test with COLO 205 colon, 52.4 µM; in the test with SF-295 CNS, 79.1 µM; in the test on A549 NSCLC it was greater than 100 µM; with IGROV1 ovarian, greater than 100 µM.
Take `CCCCCCCCCN=C(N)c1ccc(N2CCN(c3ccc(C(N)=NCCCCCCCCC)cc3)CC2)cc1`: the GI50 was 1.1 µM with OVCAR-3 ovarian; 1.78 µM with COLO 205 colon; 1.24 µM with SF-295 CNS; 1.57 µM in the test on A549 NSCLC; 3.86 µM in the test on OVCAR-4 ovarian; 1.1 µM in the test with SNB-75 CNS. The GI50 in the test with IGROV1 ovarian was 1.66 µM. The TGI with OVCAR-3 ovarian was 3.83 µM; in the test on COLO 205 colon it was 7.94 µM; with SF-295 CNS, 2.57 µM; in the test with A549 NSCLC, 10.5 µM; in the test with OVCAR-4 ovarian it was greater than 50 µM; in the test on SNB-75 CNS, 4.75 µM. The compound further returned a TGI in the test on IGROV1 ovarian greater than 50 µM.
On to `O=C(/C=C(/C=C/c1cccc2[nH]ccc12)OB(F)F)/C=C/c1cccc2[nH]ccc12`, for which the GI50 was 0.353 µM with OVCAR-3 ovarian; 0.771 µM in the test with COLO 205 colon; 1.76 µM in the test on SF-295 CNS; 1.62 µM in the test with A549 NSCLC; 1.7 µM in the test on A498 renal; 0.554 µM in the test with OVCAR-4 ovarian. Further, in the test on IGROV1 ovarian, the GI50 was 0.62 µM. In addition, the TGI in the test on OVCAR-3 ovarian amounted to 1.23 µM; in the test with COLO 205 colon, 3.15 µM; in the test on SF-295 CNS it was 4.61 µM; with A549 NSCLC, 14.2 µM; with A498 renal it was 3.42 µM; with OVCAR-4 ovarian, 24.7 µM. This compound also displayed a TGI in the test on IGROV1 ovarian of 6 µM.
Turning to `COC(=O)C1C(C(=O)O)C2(c3ccccc3)C(=O)C1(c1ccccc1)C(c1ccc(OC)cc1)=C2c1ccc(OC)cc1` (stereo not given), the GI50 in the test on OVCAR-3 ovarian is 17.3 µM; in the test with COLO 205 colon, 16.4 µM; in the test with SF-295 CNS it was 30.3 µM; in the test with A549 NSCLC, 15.7 µM; with A498 renal it was 23.2 µM; with OVCAR-4 ovarian it was 19.7 µM. Further, the GI50 in the test with IGROV1 ovarian was 19.9 µM. Besides, the TGI with OVCAR-3 ovarian was 41.2 µM; in the test on COLO 205 colon it was 38.8 µM; in the test on SF-295 CNS, 77.2 µM; in the test on A549 NSCLC, 33.5 µM; in the test on A498 renal it was 46.2 µM; in the test with OVCAR-4 ovarian, 55.2 µM. This compound registered a TGI in the test with IGROV1 ovarian of 45.8 µM.
As to `Nc1nc(N)c2cc(S(=O)(=O)c3ccc4ccccc4c3)ccc2n1`, the TGI with OVCAR-3 ovarian is greater than 100 µM; with COLO 205 colon, greater than 100 µM; in the test on SF-295 CNS it was greater than 56.3 µM; with A549 NSCLC, greater than 100 µM; in the test on SNB-75 CNS it was 12.3 µM; in the test with IGROV1 ovarian, greater than 100 µM. Besides, in the test with COLO 205 colon, the GI50 is 6.37 µM.
`CSC1=CC(=O)c2ccccc2C1=O`: the GI50 in the test on OVCAR-3 ovarian was 1.78 µM; with COLO 205 colon, 1.99 µM; in the test on SF-295 CNS it was 15.4 µM; with A549 NSCLC it was 24.2 µM; in the test with OVCAR-4 ovarian it was 1.36 µM; with SNB-75 CNS, 11.6 µM. For the same compound, in the test on IGROV1 ovarian, the GI50 is 3.7 µM. Also, the TGI in the test with OVCAR-3 ovarian is 3.37 µM; in the test with COLO 205 colon, 3.65 µM; in the test on SF-295 CNS it was 31.5 µM; in the test on A549 NSCLC, 64.8 µM; with OVCAR-4 ovarian, 2.67 µM; with SNB-75 CNS it was 24.2 µM. This compound also had a TGI in the test with IGROV1 ovarian of 13.2 µM.
For `CCCCCOC(=O)Nc1nc(=O)n(C2OC(C)C(O)C2O)cc1F` (stereo not given), the GI50 with SF-295 CNS and in the test on OVCAR-4 ovarian was greater than 10000 µM throughout. Also, the TGI with SF-295 CNS, with OVCAR-4 ovarian and in the test on IGROV1 ovarian was greater than 10000 µM in each case.
